From PubChem BioAssay AID1996
In brackets after ≈: the same amount, converted by molar mass.

Conditions: buffer; pH 7.4; 200.0 µM

SMILES	solubility kinetic
CC1(C)CC(NC(=S)NCc2ccco2)CC(C)(C)N1	> 44.3 µg/mL
O=C(COC(=O)c1ccccc1Cl)NCc1ccco1	> 44.1 µg/mL
CS(=O)(=O)Oc1ccc2c(c1)O/C(=C\c1cccnc1)C2=O	5 µg/mL (≈ 15.8 µM)
CC(C)NC(=O)CN1CCC(c2nc3ccccc3[nH]2)CC1	> 45.1 µg/mL
COc1cccc(C(=O)NCc2ccc3[nH]c(C)cc3c2)c1	15.8 µg/mL (≈ 53.7 µM)
O=C(c1ccc([N+](=O)[O-])cc1)N1CCN(C(=O)C2CCCCC2)CC1	> 51.8 µg/mL
COc1ccccc1NC(=O)CCCCC(=O)Nc1ccccc1OC	41.8 µg/mL (≈ 117 µM)
O=C(COC(=O)/C=C/c1ccco1)Nc1cc(S(=O)(=O)N2CCOCC2)ccc1Cl	2.7 µg/mL (≈ 5.94 µM)
CC(=O)c1c(O)c2ccccc2n(C)c1=O	27.3 µg/mL (≈ 126 µM)
CCOc1ccc(C(=O)NC2CC(C)(C)NC(C)(C)C2)cc1.Cl	> 51.1 µg/mL
COCCC(=O)Nc1ccc2c(c1)CN(C(=O)CCOC)CC2	> 48.1 µg/mL
CNC(=S)N1CCn2cccc2C1c1cccnc1 (configuration not stated)	40.8 µg/mL (≈ 150 µM)
CCc1nc2ccccc2c(C(=O)Nc2cc(C)ccc2C)c1C	45.6 µg/mL (≈ 143 µM)
Cc1ccc(C)c(OCC(=O)N2CCc3ccccc3C2)c1	22.3 µg/mL (≈ 75.5 µM)
O=[N+]([O-])c1cccc2c(Cl)ccnc12	> 31.3 µg/mL
Cc1ccc(-n2c(SCC(=O)N3CCCCC3)nc(O)cc2=O)cc1	49.9 µg/mL (≈ 139 µM)
CC(=O)Nc1ccc(-c2csc(Nc3ncccn3)n2)cc1	0.4 µg/mL (≈ 1.28 µM)
COCCn1c(SCC(=O)NC2CCCC2)nnc1-c1ccco1	> 52.6 µg/mL
O=c1c(-c2ccco2)[n+]([O-])c2ccccc2n1OCc1c(F)cccc1F	3 µg/mL (≈ 8.1 µM)
O=S(=O)(c1ccc(Cl)cc1)N1CCN(CCc2ccncc2)CC1	18.3 µg/mL (≈ 50 µM)
O=C(/C=C/NCc1cccnc1)c1ccc(Br)cc1	> 47.6 µg/mL
CC(C)(C)NS(=O)(=O)c1ccc(/C=C/C(=O)O)cc1	> 42.5 µg/mL

SMILES	solubility kinetic
O=C(Nc1ccccc1)N1CCN(C(=O)Nc2ccccc2)CC1	3.1 µg/mL (≈ 9.56 µM)
O=C(Nc1ccccc1N1CCCCC1)c1ccc(OC(F)F)cc1	0.7 µg/mL (≈ 2.02 µM)
CCOc1ccccc1N1CCN(C(=O)NCc2ccc(C)cc2)CC1	> 53 µg/mL
Cc1c(-c2ccc(Br)cc2)[n+](=O)c2c(n1[O-])CCCC2	> 50.3 µg/mL
COc1ccc(C(=O)NN2CCOCC2)cc1	> 35.4 µg/mL
CC1CCN(C(=O)CN(Cc2ccc(F)cc2)S(C)(=O)=O)CC1	> 51.4 µg/mL
Cl.OC(CN1CCOCC1)c1csc2ccccc12 (configuration not stated)	43.6 µg/mL
CC1CC(C(=O)Nc2ccccc2)C(=O)O1 (configuration not stated)	27.2 µg/mL (≈ 124 µM)
CCOC(=S)N/C(=N\S(C)(=O)=O)c1ccccc1	> 43 µg/mL
O=c1[nH]c(CSc2nc3ccccc3s2)nc2ccccc12	1.5 µg/mL (≈ 4.61 µM)
CC1CC(c2ccccc2)=Nc2ccccc2N1 (configuration not stated)	26.2 µg/mL (≈ 111 µM)
Cc1cccc(Cn2cc(C=O)c3ccccc32)c1	14.5 µg/mL (≈ 58.2 µM)
COc1ccc(NC(=O)c2csc(C)c2)cc1OC	> 41.6 µg/mL
CN(CC(=O)OCC(N)=O)S(=O)(=O)c1ccc(Cl)cc1	> 48.1 µg/mL
Cc1nc2sc3c(c2c(=O)[nH]1)CCCCC3	2 µg/mL (≈ 8.54 µM)
Nc1ccccc1SC/C=C/CSc1ccccc1N	12.8 µg/mL (≈ 42.3 µM)
Cn1c(SCC(=O)NCC2COc3ccccc3O2)nnc1C(F)(F)F (configuration not stated)	> 58.3 µg/mL
CCOc1ccc(NC(=S)NC23CC4CC(CC(C4)C2)C3)cc1	< 0.4 µg/mL
O=C(Cc1ccccc1)Oc1ccc([N+](=O)[O-])cc1	> 38.6 µg/mL
N#Cc1ccc(C(=O)OCC(=O)N2CCCCCC2)cc1	> 42.9 µg/mL
Cc1cc(C)nc(SCc2ccc(Cl)cc2)n1	0.6 µg/mL (≈ 2.27 µM)
Nc1cc(N)nc(SCC(=O)Nc2ccc3c(c2)OCO3)n1	47.2 µg/mL (≈ 148 µM)

SMILES	solubility kinetic
COc1ccc(CC(=O)NCC(C)(C)N2CCOCC2)cc1	> 46 µg/mL
Nc1nccnc1C(=O)OCC(=O)c1ccc[nH]1	> 36.9 µg/mL
C=CCC(O)(CC=C)C(C)N.Cl (configuration not stated)	> 28.8 µg/mL
O=C(NC12CC3CC(CC(C3)C1)C2)c1cccc([N+](=O)[O-])c1	7.3 µg/mL (≈ 24.3 µM)
COc1ccc(CCC(=O)NCC23CC4CC(CC(C4)C2)C3)cc1	30.7 µg/mL (≈ 93.7 µM)
COC(=O)C(NC(C)=O)(Nc1cccc(C)n1)C(F)(F)F (configuration not stated)	> 45.8 µg/mL
CSC(=Nc1ccccc1)Nc1ccccc1	6.4 µg/mL (≈ 26.4 µM)
Nc1ccccc1C(=O)NC12CC3CC(CC(C3)C1)C2	28.7 µg/mL (≈ 106 µM)
CCOC(=O)c1ccccc1NC(=O)Cc1ccc(S(=O)(=O)N2CCCC2)s1	17.5 µg/mL (≈ 41.4 µM)
N#Cc1ccccc1NC(=S)NC(=O)C1CCC1	> 38.9 µg/mL
Cc1ccc(OC(C)C(=O)Nc2ccc(Cl)cn2)c([N+](=O)[O-])n1 (configuration not stated)	18.7 µg/mL (≈ 55.5 µM)
O=C(O)CCC(=O)Nc1nc2nccc(-c3ccccc3)n2n1	> 46.7 µg/mL
COc1ccc(-c2cc(-c3ccccc3)nc(Cl)n2)cc1OC	< 0.3 µg/mL
O=C(O)c1cc(O)ccc1NC(=O)C1CCCO1 (configuration not stated)	30.1 µg/mL (≈ 120 µM)
O=c1[nH]c(=S)n(C2CC2)c(O)c1C=NCC1CCCO1 (configuration not stated)	> 44.3 µg/mL
CCOc1c(Nc2cccc(Cl)c2)c(=O)c1=O	> 37.8 µg/mL
O=Cc1ccc(OCC(=O)NCC2CCCO2)cc1 (configuration not stated)	36.4 µg/mL (≈ 138 µM)
CN(C)CCCn1c(=S)[nH]c2sc3c(c2c1=O)CCCC3	> 48.5 µg/mL
Nc1nnc(SCC(=O)NC2CCCCCCC2)s1	> 45.1 µg/mL
COc1ccc(S(=O)(=O)NCc2cccnc2)cc1C	> 43.9 µg/mL
O=C(COC(=O)Cn1ccc(=O)[nH]c1=O)Nc1ccc(F)cc1	> 48.2 µg/mL
CCCCn1c(O)c(C(CC)=NCCCn2ccnc2)c(=O)[nH]c1=O	48.2 µg/mL (≈ 139 µM)

SMILES	solubility kinetic
CNC(=S)N1CCc2sccc2C1C (configuration not stated)	> 34 µg/mL
Cc1cc(C)cc(NC(=O)N2c3ccccc3NC(=O)CC2C)c1 (configuration not stated)	46.8 µg/mL (≈ 145 µM)
NS(=O)(=O)c1ccc(CCNC(=O)NC2CCCCC2)cc1	> 48.8 µg/mL
Cc1ccc(Nc2cc(C)c(O)c(C)c2)cc1	10.5 µg/mL (≈ 46.2 µM)
Cc1ccc(C(=O)NCCNC(=O)Cc2ccccc2)cn1	> 44.6 µg/mL
O=C(/C=C/c1ccccc1)OCCN=C1NS(=O)(=O)c2ccccc21	8.6 µg/mL (≈ 24.1 µM)
CCc1c(C#N)c(=O)[nH]c(=O)n1-c1ccccc1	> 36.2 µg/mL
Cc1cccc(Nc2c3c(nc4ccccc24)CCC3)c1.Cl	44.9 µg/mL
CSCCC1NC(=O)N(CC(=O)Nc2ccc3c(c2)OCCO3)C1=O (configuration not stated)	> 54.8 µg/mL
COc1ccccc1CNc1ccc2c(c1)CCC2	7.4 µg/mL (≈ 29.2 µM)
CC(=O)C1=C(O)C(=O)N(c2ccc(F)cc2)C1c1ccc(C)cc1 (configuration not stated)	> 48.8 µg/mL
Cc1ccc(CNC(=O)CCCN2C(=S)NC(C)(C)CC2C)cc1 (configuration not stated)	37 µg/mL (≈ 106 µM)
CCOC(=O)N1CCN(Cc2ccc3ccccc3c2)CC1	26.9 µg/mL (≈ 90.2 µM)
OCc1ccccc1OCCCOc1cccc2cccnc12	> 46.4 µg/mL
Cc1nc(N)c(C#N)c(-c2ccc3c(c2)OCO3)c1C	0.5 µg/mL (≈ 1.87 µM)
Cc1cccc(CNCCc2c[nH]c3ccccc23)c1.O=C(O)C(=O)O	> 53.2 µg/mL
Cc1nc(Nc2cccc(O)c2)c2oc3ccccc3c2n1	2 µg/mL (≈ 6.87 µM)
Cc1nc2ccccn2c1C(=O)C(=O)Nc1cc(F)ccc1F	4 µg/mL (≈ 12.7 µM)
CCCCNC(=O)c1ccccc1SCc1c(C)noc1C	> 47.8 µg/mL
O=[N+]([O-])c1ccc(N(CC2CO2)S(=O)(=O)c2ccccc2)cc1 (configuration not stated)	41.9 µg/mL (≈ 125 µM)
CC(=O)N1CCN(c2ccc(S(=O)(=O)N3CCCCC3)cc2[N+](=O)[O-])CC1	> 59.5 µg/mL
